Assays:
[1] = system: transferrin saturation (TSAT); test: Phase 3 trial (Example 1): TSAT; format: in vivo, human; parameters: TSAT, Mean / TSAT, Median / TSAT, Change from Baseline, Mean / TSAT, Change from Baseline, Median / TSAT, LS Mean / TSAT, Treatment Differences, LS Mean (KRX-0502) − LS Mean (control): unit not given here; conditions: for TSAT, Mean / TSAT, Median / TSAT, LS Mean / TSAT, Change from Baseline, Mean / TSAT, Change from Baseline, Median / TSAT, Treatment Differences, LS Mean (KRX-0502) − LS Mean (control): Table 16
Text: Iron studies including serum iron, ferritin, TSAT, and total iron-binding capacity were done at Screening (Visit 0); at the Randomization Visit (Visit 4); at Visits 7 (Week 4), 9 (Week 8), 11 (Week 12), 12 (Week 16), 13 (Week 20), 14 (Week 24), 15 (Week 28), 16 (Week 32), 17 (Week 36), 18 (Week 40), 19 (Week 44), 20 (Week 48), and 21 (Week 52) of the 52-week Safety Assessment Period; and at Visit 25 (Week 56) of the Efficacy Assessment Period.
Change from baseline in TSAT at Week 52 as compared to baseline (Visit 4). This variable will be analyzed using LOCF methodology. ANCOVA will be employed. The model will include treatment (fixed effect), and baseline (covariate). A sensitivity analysis will be performed using MMRM method.
• 1. Change in serum calcium concentration at Weeks 12, 24, 36, 48, and 52 as compared to baseline (Visit 4). This variable will be analyzed using LOCF methodology. ANCOVA will be employed. The model will include treatment (fixed effect), and baseline (covariate). • 2. Change in ferritin, and TSAT at Weeks 12, 24, 36 and 48 as compared to baseline (Visit 4). This variable will be analyzed using LOCF methodology. ANCOVA will be employed. The model will include treatment (fixed effect), and baseline (covariate). • 3. Change in serum iron and TIBC at Weeks 12, 24, 36, 48, and 52 as compared to baseline (Visit 4). This variable will be analyzed using LOCF methodology. ANCOVA will be employed. The model will include treatment (fixed effect), and baseline (covariate). • 4. Change in Ca x P product at Weeks 12, 24, 36, 48, and 52 as compared to baseline (Visit 4). This variable will be analyzed using LOCF methodology. ANCOVA will be employed. The model will include treatment (fixed effect), and baseline (covariate). • 5. Change in iPTH at Weeks 12, 36, 52, and 56 as compared to baseline (Visit 4). This variable will be analyzed using LOCF methodology. ANCOVA will be employed. The model will include treatment (fixed effect), and baseline (covariate). • 6. Change in serum […], vitamin A, vitamin B-12, vitamin E, vitamin K and folic acid at Weeks 12, 36, and 52 as compared to baseline (Visit 4). This variable will be analyzed using LOCF methodology. ANCOVA will be employed. The model will include treatment (fixed effect), and baseline (covariate). • 7. Change in serum bicarbonate concentration at Weeks 12, 36, and 52 as compared to baseline (Visit 4). This variable will be analyzed using LOCF methodology. ANCOVA will be employed. The model will include treatment (fixed effect), and baseline (covariate). • 8. Change in IV iron intake at Weeks 12, 24, 36, 48, and 52 as compared to baseline (Visit 4). This variable will be analyzed using LOCF methodology. ANCOVA will be employed. The model will include treatment (fixed effect), and baseline (covariate). • 9. Change in the use of EPO (ESA) administered at Weeks 12, 24, 36, 48, and 52 as compared to baseline (Visit 4). This variable will be analyzed using LOCF methodology. ANCOVA will be employed. The model will include treatment (fixed effect), and baseline (covariate). • 10. Change in the use of Vitamin D supplementation (and its analogs) and Sensipar (cinacalcet) at Weeks 12, 24, 36, 48, and 52 as compared to baseline (Visit 4). This variable will be analyzed using LOCF methodology. ANCOVA will be employed. The model will include treatment (fixed effect), and baseline (covariate). • 11. Change in LDL, HDL, and triglycerides at Weeks 12, 36, and 52 as compared to baseline (Visit 4). This variable will be analyzed using LOCF methodology. ANCOVA will be employed. The model will include treatment (fixed effect), and baseline (covariate).

[2] = Phase 2 trial (Example 2): safety and tolerability; format: in vivo, human
Protocol: The safety population in the study included all randomized patients who took at least one dose of study drug.
Serious adverse events occurred in six KRX-0502 subjects (8%) versus ten placebo subjects (14%). Two deaths were recorded in the study, both from the placebo group.

[3] = Day 0 Baseline, Safety Assessment Period

Substance: iron (+3), x (1, 2, 3-propanetricarboxylic acid, 2-hydroxy-), y (H2O) [KRX-0502]
- Mean TSAT, LS Mean Difference from Active Control Group at Week 52 ([1]; ANCOVA, Table D): 10%
- Mean TSAT ([1]; Baseline (Day 0), Table D): 31%
- TSAT, Mean [1, 3]: 31.0
- TSAT, Median [1, 3]: 29.5
- TSAT, LS Mean ([1]; Week 12, ANCOVA): 40.17
- Mean TSAT ([1]; Week 12, LOCF, Table D): 40%
- TSAT, Change from Baseline, Mean ([1]; Week 12): 9.2
- TSAT, Change from Baseline, Median ([1]; Week 12): 7.0
- TSAT, Mean ([1]; Week 12): 40.2
- TSAT, Median ([1]; Week 12): 37.0
- TSAT, Treatment Differences, LS Mean (KRX-0502) − LS Mean (control) ([1]; Week 12): 8.74
- TSAT, LS Mean ([1]; Week 24, ANCOVA): 39.90
- Mean TSAT ([1]; Week 24, LOCF, Table D): 40%
- TSAT, Change from Baseline, Mean ([1]; Week 24): 8.9
- TSAT, Change from Baseline, Median ([1]; Week 24): 7.0
- TSAT, Mean ([1]; Week 24): 39.9
- TSAT, Median ([1]; Week 24): 38.0
- TSAT, Treatment Differences, LS Mean (KRX-0502) − LS Mean (control) ([1]; Week 24): 8.28
- TSAT, LS Mean ([1]; Week 36, ANCOVA): 39.80
- Mean TSAT ([1]; Week 36, LOCF, Table D): 40%
- TSAT, Change from Baseline, Mean ([1]; Week 36): 8.8
- TSAT, Change from Baseline, Median ([1]; Week 36): 7.0
- TSAT, Mean ([1]; Week 36): 39.8
- TSAT, Median ([1]; Week 36): 37.0
- TSAT, Treatment Differences, LS Mean (KRX-0502) − LS Mean (control) ([1]; Week 36): 9.44
- TSAT, LS Mean ([1]; Week 48, ANCOVA): 40.60
- Mean TSAT ([1]; Week 48, LOCF, Table D): 41%
- TSAT, Change from Baseline, Mean ([1]; Week 48): 9.6
- TSAT, Change from Baseline, Median ([1]; Week 48): 7.0
- TSAT, Mean ([1]; Week 48): 40.6
- TSAT, Median ([1]; Week 48): 38.0
- TSAT, Treatment Differences, LS Mean (KRX-0502) − LS Mean (control) ([1]; Week 48): 11.17
- TSAT, LS Mean ([1]; Week 52, ANCOVA): 39.35
- Mean TSAT ([1]; Week 52, LOCF, Table D): 39%
- TSAT, Change from Baseline, Mean ([1]; Week 52): 8.3
- TSAT, Change from Baseline, Median ([1]; Week 52): 6.0
- TSAT, Mean ([1]; Week 52): 39.4
- TSAT, Median ([1]; Week 52): 35.0
- TSAT, Treatment Differences, LS Mean (KRX-0502) − LS Mean (control) ([1]; Week 52): 9.66
- Mean TSAT, % Change from Baseline ([1]; Week 52, relative change, Table D): 25.8%
- Mean TSAT, Change from Baseline at Week 52 ([1]; absolute TSAT points, Table D): 8%
- differences in serum calcium levels and liver enzymes (ALT, AST) ([2]; KRX-0502 vs placebo): no clinically meaningful or statistically significant differences
- Serious adverse events, % of subjects ([2]; Phase 2 study): 8%
- Serious adverse events, number of subjects ([2]; Phase 2 study): six
- study discontinuations due to hypophosphatemia ([2]; Phase 2 study): no study discontinuations due to hypophosphatemia
- safety and tolerability ([2]; Phase 2 study, safety population): safe and well-tolerated
- discontinuation rates ([2]; including Treatment Failures): 19%

From patent publication US20250360167A1 (Keryx Biopharmaceuticals, Inc., priority 2013, published 2025)
